Reference: the supplement of paper PMC11208160

Assay: recombinant UMI read abundance after kanamycin selection (control-corrected) (log10(CPM+1)); higher = more efficient recombination; extreme values may be limits of the assay; sequences stand for … in AGTGCAGAGAAAATCGGCCAGTTTTCTCTGCCTGCAGTCCGCATGCCGTGGGACCCCTTGGGTTCTAACCTGTTGCCTAGATTTATGCAGCGGACTGCCTTTCTCCCAAAGTGATAAACCGG…AGGTTGGTTTCACT; site = the 11-nt donor
How it was run: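 After plating on IPTG (0.07 mM) plus kanamycin, or unselected, in two replicates, recombinant UMIs were PCR-amplified across the donor–target junction and sequenced. The cells were Escherichia coli co-electroporated with a UMI-tagged donor and donor-binding-loop pair library and a target plasmid with a fixed target and T7-inducible IS621 bridge recombinase. Values are log10(CPM+1), with CPM averaged over replicates and scaled by control-derived factors.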
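Note: IS621 bridge recombinase in Escherichia coli cells against a fixed T5 target plasmid.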

Sequence	recombinant UMI read abundance (log10)
TTAGATGCATGGACCGGTTTTCCCGGTAATCCGTATTTGTG (site TTAGTTGCTCA)	0.00838
ATCTATACATGGACCGGTTTTCCCGGTAATCCGTATTTGTC (site ATCTATACTGA)	2.8
CTAATATCATGGACCGGTTTTCCCGGTAATCCGTATTTGAG (site CTAATATCTCT)	3.07
CGTCTCACATGGACCGGTTTTCCCGGTAATCCGTATTTGGT (site CGTCTCACTAC)	1.62
CCCCACGCATGGACCGGTTTTCCCGGTAATCCGTATTTGTA (site CCCCACACTTA)	0.643
CAATGTTCATGGACCGGTTTTCCCGGTAATCCGTATTTGAA (site CAATGCTCTTT)	0.0108
ATACTATCATGGACCGGTTTTCCCGGTAATCCGTATTTGAC (site CTAGTATCTGT)	0
AACCTTTCATGGACCGGTTTTCCCGGTAATCCGTATTTGAC (site ACCCTTTCTGT)	0
CCCTCCTCATGGACCGGTTTTCCCGGTAATCCGTATTTGGG (site CCCTTCTCTCC)	0.00367
CGGCATCCATGGACCGGTTTTCCCGGTAATCCGTATTTGTG (site CGGAATCCTAA)	0
TCACATCCATGGACCGGTTTTCCCGGTAATCCGTATTTGAC (site GCACATCCTGT)	0
CCAGCAGCATGGACCGGTTTTCCCGGTAATCCGTATTTGCT (site CTAGCAGCTAG)	0.0142
ATGCATGCATGGACCGGTTTTCCCGGTAATCCGTATTTGGT (site TTGCATGCTAC)	0.601
CTATCATCATGGACCGGTTTTCCCGGTAATCCGTATTTGCT (site CAATCATCTAG)	0.957
AGCTCAGCATGGACCGGTTTTCCCGGTAATCCGTATTTGGA (site AGCTCAGCTAC)	0.00904
CGCGAACCATGGACCGGTTTTCCCGGTAATCCGTATTTGAT (site CGGGAACCTAT)	0
CGGGGTCCATGGACCGGTTTTCCCGGTAATCCGTATTTGAT (site CGGGGTCCTAT)	0
TCAAAGACATGGACCGGTTTTCCCGGTAATCCGTATTTGCG (site TCAAAGACTCG)	1.9
GGCAGTCCATGGACCGGTTTTCCCGGTAATCCGTATTTGAA (site GGCAATCCTTT)	0.00812
TTTTCGGCATGGACCGGTTTTCCCGGTAATCCGTATTTGCT (site TTTCCGGCTAG)	0.302
AGGTACCCATGGACCGGTTTTCCCGGTAATCCGTATTTGTG (site AGGTCCCCTCA)	0.0158
AACAATACATGGACCGGTTTTCCCGGTAATCCGTATTTGTC (site AACAATACTGA)	1.64
TATGACCCATGGACCGGTTTTCCCGGTAATCCGTATTTGAG (site TATGACCCTCT)	0.00635
CGATCGCCATGGACCGGTTTTCCCGGTAATCCGTATTTGTT (site CGATCGTCTAA)	1.46
CAGTAGGCATGGACCGGTTTTCCCGGTAATCCGTATTTGCA (site CAGTAGGCTTG)	2.82

Sequence	recombinant UMI read abundance (log10)
CGTACCGCATGGACCGGTTTTCCCGGTAATCCGTATTTGTC (site CGTACCGCTGA)	2.78
GTGCATGCATGGACCGGTTTTCCCGGTAATCCGTATTTGGC (site GTGCATGCTAC)	0.31
GGGGCACCATGGACCGGTTTTCCCGGTAATCCGTATTTGCA (site GGGGCACCTTT)	0.0161
GGACAGTCATGGACCGGTTTTCCCGGTAATCCGTATTTGTC (site GGACAGTCTGA)	3.04
GAACATTCATGGACCGGTTTTCCCGGTAATCCGTATTTGTT (site GAACATTCTAA)	2.03
GTGGGTACATGGACCGGTTTTCCCGGTAATCCGTATTTGAC (site GTAGGTACTGT)	2.16
GTATGTACATGGACCGGTTTTCCCGGTAATCCGTATTTGTA (site GTATGAACTTA)	1.74
CGTTAGACATGGACCGGTTTTCCCGGTAATCCGTATTTGAA (site CGTTAGACTAT)	0.0102
TAGCCTGCATGGACCGGTTTTCCCGGTAATCCGTATTTGGT (site TAGCCTACTAC)	0.00931
AAGTAGACATGGACCGGTTTTCCCGGTAATCCGTATTTGCA (site AGGAAGACTTG)	0.52
TCCAATTCATGGACCGGTTTTCCCGGTAATCCGTATTTGTC (site TCCAATTCTGC)	0
TAAAACTCATGGACCGGTTTTCCCGGTAATCCGTATTTGGG (site TAAAACTCTCC)	0.00919
TTTGCGGCATGGACCGGTTTTCCCGGTAATCCGTATTTGTT (site TTTGCGGCTAG)	0.0139
TTTAATCCATGGACCGGTTTTCCCGGTAATCCGTATTTGAT (site TTTAATCCTAT)	0.157
GAGCGTTCATGGACCGGTTTTCCCGGTAATCCGTATTTGCG (site GAGCGTTCTCG)	1.82
AACTTGACATGGACCGGTTTTCCCGGTAATCCGTATTTGCT (site TACTTGACTAG)	1.24
GCAGTAACATGGACCGGTTTTCCCGGTAATCCGTATTTGCA (site GCAGTAACTTG)	2.83
GTGAAGACATGGACCGGTTTTCCCGGTAATCCGTATTTGCA (site AGGAAGACTTG)	1.26
CACGCCTCATGGACCGGTTTTCCCGGTAATCCGTATTTGAA (site CACGCCTCTTT)	2.67
GTGCTTGCATGGACCGGTTTTCCCGGTAATCCGTATTTGGT (site GTGCGTGCTAC)	0.0221
AACCTTTCATGGACCGGTTTTCCCGGTAATCCGTATTTGAC (site AACCTTTCTGT)	0
CGCGAACCATGGACCGGTTTTCCCGGTAATCCGTATTTGAT (site CGAGAACCTAT)	0
AATGTCACATGGACCGGTTTTCCCGGTAATCCGTATTTGCT (site AATGTAACTAG)	0.799
GTATGTACATGGACCGGTTTTCCCGGTAATCCGTATTTGTA (site GTATGCACTTA)	1.61
ATGGGCCCATGGACCGGTTTTCCCGGTAATCCGTATTTGAC (site ATGGGCCCTGT)	0.523

Sequence	recombinant UMI read abundance (log10)
TACTAGGCATGGACCGGTTTTCCCGGTAATCCGTATTTGGT (site TGCTAGGCTAC)	0.0175
ACTTGCCCATGGACCGGTTTTCCCGGTAATCCGTATTTGAT (site GCTTGCCCTAT)	0.0168
ATGTAGGCATGGACCGGTTTTCCCGGTAATCCGTATTTGTC (site ATGTAGGCTGC)	1.62
GGGACTACATGGACCGGTTTTCCCGGTAATCCGTATTTGAC (site TGGACTACTGT)	0
CAAGTCCCATGGACCGGTTTTCCCGGTAATCCGTATTTGCT (site CAACTCCCTAG)	0.843
TTGTAGGCATGGACCGGTTTTCCCGGTAATCCGTATTTGGC (site TTGTAGGCTGC)	1.76
CTAGGTACATGGACCGGTTTTCCCGGTAATCCGTATTTGAC (site TTAGGTACTGT)	0
TGGCCGGCATGGACCGGTTTTCCCGGTAATCCGTATTTGGC (site AGGCCGGCTGC)	0
GTTAGAACATGGACCGGTTTTCCCGGTAATCCGTATTTGGA (site GTTAGAACTGC)	0
GTAGTGGCATGGACCGGTTTTCCCGGTAATCCGTATTTGGT (site GGAGTGGCTAC)	0.028
TGCAAGTCATGGACCGGTTTTCCCGGTAATCCGTATTTGGC (site TGCAAGTCTGC)	2.11
GAATATCCATGGACCGGTTTTCCCGGTAATCCGTATTTGCT (site GATTATCCTAG)	0
CCTAACACATGGACCGGTTTTCCCGGTAATCCGTATTTGGC (site CCTAAAACTGC)	0
AGTTAGACATGGACCGGTTTTCCCGGTAATCCGTATTTGCA (site AGGAAGACTTG)	1.51
AGCGGCTCATGGACCGGTTTTCCCGGTAATCCGTATTTGGG (site AGCGGCTCTCC)	0.204
GGACAGACATGGACCGGTTTTCCCGGTAATCCGTATTTGCC (site GGAGAGACTGG)	0
ATATTTGCATGGACCGGTTTTCCCGGTAATCCGTATTTGAC (site ATATTTGCTGT)	2.1
AACTCAGCATGGACCGGTTTTCCCGGTAATCCGTATTTGGG (site ATCTCAGCTCC)	0.192
TCAGAGACATGGACCGGTTTTCCCGGTAATCCGTATTTGCT (site TCAGAGACTGG)	2.21
ACCCTAGCATGGACCGGTTTTCCCGGTAATCCGTATTTGAT (site ACCCTAGCTAT)	0.558
CGGGAGTCATGGACCGGTTTTCCCGGTAATCCGTATTTGGC (site CGGGAGTCTGT)	1.96
CTAGTAACATGGACCGGTTTTCCCGGTAATCCGTATTTGTC (site CTAGTATCTGT)	0
AGCACGTCATGGACCGGTTTTCCCGGTAATCCGTATTTGAC (site AGCACGTCTGT)	2.28
ATGTAGGCATGGACCGGTTTTCCCGGTAATCCGTATTTGGC (site ATGTAGGCTGA)	2.15
TACCTGCCATGGACCGGTTTTCCCGGTAATCCGTATTTGTA (site TACCTGCCTTA)	0.0209
